Laboratory results as given in ChEMBL document CHEMBL1139472, “Synthesis of N-{4-[(2,4-diamino-5-methyl-4,7-dihydro-3H-pyrrolo[2,3-d]pyrimidin-6-yl)thio]benzoyl}-L-glutamic acid and N-{4-[(2-amino-4-oxo-5-methyl-4,7-dihydro-3H-pyrrolo[2,3-d]pyrimidin-6-yl)thio]benzoyl}-L-glutamic acid as dual inhibitors of dihydrofolate reductase and thymidylate synthase and …” (J Med Chem, 2005).
The source made the active and inactive calls. The calls are words filed in the database; no cut-off is given here.

Tests used:
[1] = target: T1, Folylpolyglutamate synthase, mitochondrial (Homo sapiens) (UniProt Q05932); assay: Ratio of Vmax relative to […] to Km of human recombinant cytosolic FPGS
T1 sequence (whole entry): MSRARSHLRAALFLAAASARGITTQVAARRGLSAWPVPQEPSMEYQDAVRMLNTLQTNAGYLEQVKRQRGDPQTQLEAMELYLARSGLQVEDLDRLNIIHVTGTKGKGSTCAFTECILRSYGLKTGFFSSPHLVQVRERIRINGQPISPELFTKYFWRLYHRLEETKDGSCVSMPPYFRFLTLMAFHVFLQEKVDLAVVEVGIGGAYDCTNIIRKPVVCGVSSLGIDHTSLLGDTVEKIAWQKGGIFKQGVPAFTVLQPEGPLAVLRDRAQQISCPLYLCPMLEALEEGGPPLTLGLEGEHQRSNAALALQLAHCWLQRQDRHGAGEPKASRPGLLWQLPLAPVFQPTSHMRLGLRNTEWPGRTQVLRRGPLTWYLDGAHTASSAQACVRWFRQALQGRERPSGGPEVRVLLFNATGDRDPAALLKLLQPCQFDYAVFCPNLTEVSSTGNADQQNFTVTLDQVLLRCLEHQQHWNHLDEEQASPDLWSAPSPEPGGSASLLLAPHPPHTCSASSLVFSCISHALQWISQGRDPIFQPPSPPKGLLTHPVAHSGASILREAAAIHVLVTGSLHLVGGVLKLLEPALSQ

CCRF-CEM = assay: Growth inhibition of human CCRF-CEM cells at 20 uM; format: functional, cell-based

Question: `Nc1nc(N)c2nc(CNc3ccc(C(=O)N[C@@H](CCC(=O)O)C(=O)O)cc3)cnc2n1` was tested. Which Ratio [1] did it give?
Answer: 0.17

Question: What does the source list for `Cc1c(Sc2ccc(C(=O)N[C@@H](CCC(=O)O)C(=O)O)cc2)[nH]c2nc(N)[nH]c(=O)c12`?
Answer: Ratio [1]: 0.06; Activity (CCRF-CEM): inactive
